Laboratory results as given in ChEMBL document CHEMBL1133772, “In vitro and in vivo evaluation of dihydropyrimidinone C-5 amides as potent and selective alpha(1A) receptor antagonists for the treatment of benign prostatic hyperplasia” (J Med Chem, 2000).

Columns and labels:
Rattus norvegicus [1] = species: Rattus norvegicus; experiment: Evaluated for the inhibition of A61603-induced prostate contraction in rat; assay type: functional, Prostate gland
[2] = t1/2 in rat; assay type: ADME, organism-based; conditions: in vivo
[3] = biological target: T1, Alpha-1B adrenergic receptor (Homo sapiens, UniProt P35368); experiment: Evaluated for the ability to displace [125I]- HEAT from human cloned Alpha-1B adrenergic receptor stably expressed in LM cells.; assay type: cell-based
T1 sequence (P35368 whole entry): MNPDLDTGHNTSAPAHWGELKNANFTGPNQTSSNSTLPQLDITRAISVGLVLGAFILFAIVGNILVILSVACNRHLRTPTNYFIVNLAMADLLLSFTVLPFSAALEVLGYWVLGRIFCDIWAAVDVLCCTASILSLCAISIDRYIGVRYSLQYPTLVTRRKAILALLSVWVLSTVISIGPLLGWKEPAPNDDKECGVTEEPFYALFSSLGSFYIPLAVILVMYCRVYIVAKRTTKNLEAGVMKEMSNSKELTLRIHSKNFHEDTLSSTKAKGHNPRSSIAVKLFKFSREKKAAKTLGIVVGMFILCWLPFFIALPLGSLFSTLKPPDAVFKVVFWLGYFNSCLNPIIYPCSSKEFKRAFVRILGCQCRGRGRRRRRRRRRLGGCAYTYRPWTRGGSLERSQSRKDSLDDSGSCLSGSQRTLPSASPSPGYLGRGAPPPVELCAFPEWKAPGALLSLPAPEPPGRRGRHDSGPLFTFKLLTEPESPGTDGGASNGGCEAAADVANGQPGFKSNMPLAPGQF

[4] = biological target: T2, Alpha-1A adrenergic receptor (Homo sapiens, UniProt P35348); experiment: Evaluated for the ability to displace [125I]- HEAT from human cloned Alpha-1A adrenergic receptor stably expressed in CHO cells.; assay type: cell-based
T2 sequence (P35348 whole entry): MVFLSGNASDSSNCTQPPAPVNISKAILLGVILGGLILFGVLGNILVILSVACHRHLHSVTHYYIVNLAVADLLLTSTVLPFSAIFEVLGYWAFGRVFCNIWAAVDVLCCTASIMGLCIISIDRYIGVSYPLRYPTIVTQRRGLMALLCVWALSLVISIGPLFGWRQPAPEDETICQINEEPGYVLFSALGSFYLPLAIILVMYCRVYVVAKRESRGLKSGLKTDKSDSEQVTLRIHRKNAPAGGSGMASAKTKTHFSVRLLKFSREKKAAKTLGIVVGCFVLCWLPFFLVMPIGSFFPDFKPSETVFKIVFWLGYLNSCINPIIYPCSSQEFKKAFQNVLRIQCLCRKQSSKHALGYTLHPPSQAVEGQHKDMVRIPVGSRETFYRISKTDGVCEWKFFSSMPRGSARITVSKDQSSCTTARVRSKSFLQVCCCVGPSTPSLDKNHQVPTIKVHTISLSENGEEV

Canis familiaris [5] = species: Canis familiaris; experiment: The compound was evaluated for the inhibition of phenylephrine-induced contraction in dog.; assay type: functional, Canis lupus familiaris
[6] = biological target: T3, Alpha-1D adrenergic receptor (Homo sapiens, UniProt P25100); experiment: Evaluated for the ability to displace [125I]- HEAT from human cloned Alpha-1D adrenergic receptor stably expressed in HEK cells.; assay type: cell-based, HEK293
T3 sequence (P25100 whole entry): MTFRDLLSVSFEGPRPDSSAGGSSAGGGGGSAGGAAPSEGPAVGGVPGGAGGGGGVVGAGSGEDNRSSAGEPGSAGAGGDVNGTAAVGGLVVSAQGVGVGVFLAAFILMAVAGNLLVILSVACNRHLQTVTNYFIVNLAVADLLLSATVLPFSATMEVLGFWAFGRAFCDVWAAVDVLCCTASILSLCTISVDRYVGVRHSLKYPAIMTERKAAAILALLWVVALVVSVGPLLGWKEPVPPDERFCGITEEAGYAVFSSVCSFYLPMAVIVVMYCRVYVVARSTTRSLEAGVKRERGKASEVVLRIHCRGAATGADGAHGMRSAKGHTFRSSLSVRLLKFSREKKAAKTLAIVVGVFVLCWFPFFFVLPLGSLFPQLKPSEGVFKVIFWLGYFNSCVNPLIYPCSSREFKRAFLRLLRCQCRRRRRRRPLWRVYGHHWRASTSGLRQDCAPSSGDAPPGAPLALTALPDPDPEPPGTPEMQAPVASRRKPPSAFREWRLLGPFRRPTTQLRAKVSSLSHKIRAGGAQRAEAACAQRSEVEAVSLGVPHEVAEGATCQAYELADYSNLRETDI

[7] = Bioavailability in rat; assay type: ADME, organism-based; conditions: in vivo
Rattus norvegicus [8] = species: Rattus norvegicus; experiment: Duration of action with repeated challenges of A61603 agonist in rat; assay type: functional
Canis familiaris [9] = species: Canis familiaris; experiment: Dose effecting a 20 mmHg change in diastolic blood pressure in dog.; assay type: functional, Canis lupus familiaris, Artery
[10] = Plasma half-life from intravenous dose in dog.; assay type: ADME, organism-based, Canis lupus familiaris
[11] = Bioavailability in dog (dose 0.5 mg/kg i.v. and 1 mg/kg p.o.); assay type: ADME, organism-based, Canis lupus familiaris; conditions: in vivo, po
Canis familiaris [12] = species: Canis familiaris; experiment: Compound was evaluated for the inhibition of phenylephrine-induced contraction in dog.; assay type: functional, Canis lupus familiaris
[13] = biological target: T3, Alpha-1D adrenergic receptor; experiment: Ability to displace [125I]- HEAT from human cloned Alpha-1D adrenergic receptor stably expressed in HEK cells.; assay type: cell-based, HEK293
[14] = biological target: T2, Alpha-1A adrenergic receptor; experiment: Ability to displace [125I]- HEAT from human cloned Alpha-1A adrenergic receptor stably expressed in CHO cells.; assay type: cell-based
[15] = The compound was evaluated for plasma half-life from intravenous dose in dog.; assay type: ADME, organism-based, Canis lupus familiaris
[16] = The compound was evaluated for the bioavailability when dosed 0.5 mg/kg intravenously and 1 mg/kg perorally in dog.; assay type: ADME, organism-based, Canis lupus familiaris; conditions: in vivo, po
Rattus norvegicus [17] = species: Rattus norvegicus; experiment: Duration of action with repeated challenges of A61603 agonist, n=4, data from each time point was averaged (SEM<10%) in rat.; assay type: functional
Rattus norvegicus [18] = species: Rattus norvegicus; experiment: Inhibition of A61603-induced contraction; n=4 and data for each concentration was averaged (SEM<10%) in rat.; assay type: functional
Rattus norvegicus [19] = species: Rattus norvegicus; experiment: Evaluated for the inhibition of A61603-induced contraction; n=4 and data for each concentration was averaged (SEM<10%) in rat.; assay type: functional
Canis familiaris [20] = species: Canis familiaris; experiment: Evaluated for the inhibition of phenylephrine-induced contraction (SEM<10%) in dog.; assay type: functional, Canis lupus familiaris
Canis familiaris [21] = species: Canis familiaris; experiment: Dose effecting a 20 mmHg change in diastolic blood pressure (SEM<10%) in dog.; assay type: functional, Canis lupus familiaris, Artery

Structure (SMILES)	half-life [2]	Ki [3]	Ki [4]	Ki [6]	bioavailability [7]	AD50 (Rattus norvegicus [1])	Duration (Rattus norvegicus [8])	DBP-20 (Canis familiaris [9])	AD50 (Canis familiaris [12])	other results
CC1=C(C(=O)NCCCN2CCC(c3ccccc3C#N)CC2)[C@@H](c2ccc(F)c(F)c2)NC(=O)N1	2.7 h	0.158 µM	0.00025 µM	0.168 µM	0%	3 µg/kg	<0.5 h	>300 µg/kg		IUP AD50 (Canis familiaris [5]): 6 µg/kg
CC1=C(C(=O)NCCCN2CCC(c3ccc(F)cc3C#N)CC2)[C@@H](c2ccc(F)c(F)c2)NC(=O)N1C	2.2 h	0.13 µM	0.00012 µM	0.34 µM	15%	7 µg/kg	2.5 h	>300 µg/kg	10 µg/kg	half-life [10]: 2.13 h; bioavailability [11]: 27%
COCC1=C(C(=O)NCCCN2CCC(c3ccccn3)CC2)[C@@H](c2ccc(F)c(F)c2)NC(=O)N1	7 h	0.235 µM	0.00045 µM	0.495 µM	0%	12 µg/kg	0.25 h			half-life [10]: 5.58 h; bioavailability [11]: 48%
CCOc1ccccc1OCCN[C@H](C)Cc1ccc(OC)c(S(N)(=O)=O)c1 [TAMSULOSIN]										Duration (Rattus norvegicus [17]): 3.5 h; AD50 (Rattus norvegicus [18]): 3 µg/kg
COc1cc2nc(N3CCN(C(=O)C4CCCO4)CC3)nc(N)c2cc1OC (stereo not drawn) [TERAZOSIN]										AD50 (Rattus norvegicus [19]): 52 µg/kg; IUP AD50 (Canis familiaris [20]): 97 µg/kg; DBP-20 (Canis familiaris [21]): 74 µg/kg

Second part, led by results:

half-life [2]	Ki [3]	Ki [4]	Ki [6]	bioavailability [7]	Structure (SMILES)	AD50 (Rattus norvegicus [1])	Duration (Rattus norvegicus [8])	DBP-20 (Canis familiaris [9])	AD50 (Canis familiaris [12])	other results
1.7 h	0.04 µM			< 6%	CC1=C(C(=O)NCCCN2CCC(c3ccc(F)cc3)CC2)[C@@H](c2ccc(F)c(F)c2)NC(=O)N1	1.8 µg/kg	0.5 h	143 µg/kg	7 µg/kg	Ki [13]: 0.24 µM; Ki [14]: 0.00039 µM
6.47 h	0.041 µM		0.26 µM	26%	COCC1=C(C(=O)NCCCN2CCC(c3ccc(F)cc3)CC2)[C@@H](c2ccc(F)c(F)c2)NC(=O)N1	4.6 µg/kg	1 h	>300 µg/kg	25 µg/kg	half-life [15]: 7.77 h; Ki [14]: 0.00024 µM; bioavailability [16]: 40%
1 h	0.024 µM	0.00017 µM	0.068 µM	0%	O=C1NC=C(C(=O)NCCCN2CCC(c3ccc(F)cc3)CC2)[C@@H](c2ccc(F)c(F)c2)N1	2.2 µg/kg	0.5 h	>300 µg/kg	21 µg/kg	
